Assay results taken from ChEMBL document CHEMBL1201862, “PubChem BioAssay data set” (2004).
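Cultured in 96-well plates, cells were exposed to test compound for 48 hours across five concentrations. Abbreviation: GI50, concentration required for 50% inhibition of growth.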 Calls of active or inactive are those of the source. Rule as the data show it: active = GI50 up to about 1.1 µM and inactive = higher.

Assays:
Experiment in all cases: DTP human tumour cell line panel, 48 h
786-0 = system: 786-0
ACHN = system: ACHN
CCRF-CEM = system: CCRF-CEM
HCT-116 = system: HCT-116
HOP-62 = system: HOP-62
KM12 = system: KM12
LOX IMVI = system: LOX IMVI
MDA-N = system: MDA-N
NCI-H522 = system: NCI-H522
NCI/ADR-RES = system: NCI/ADR-RES
OVCAR-5 = system: OVCAR-5
RPMI-8226 = system: RPMI-8226
SF-268 = system: SF-268
SF-539 = system: SF-539
SK-MEL-28 = system: SK-MEL-28
SK-MEL-5 = system: SK-MEL-5
T47D = system: T47D
TK-10 = system: TK-10
U-251 = system: U-251
NCI-H226 = system: NCI-H226

Structure (SMILES)	GI50 (786-0)	GI50 (ACHN)	GI50 (CCRF-CEM)	GI50 (HCT-116)	GI50 (HOP-62)	GI50 (KM12)	GI50 (LOX IMVI)	GI50 (MDA-N)	GI50 (NCI-H522)	GI50 (NCI/ADR-RES)	GI50 (OVCAR-5)	GI50 (RPMI-8226)	GI50 (SF-268)	GI50 (SF-539)	GI50 (SK-MEL-28)	GI50 (SK-MEL-5)	GI50 (T47D)	GI50 (TK-10)	GI50 (U-251)	GI50 (NCI-H226)
COC1=CC(=O)c2c(cc(COP(=O)(N(C)CCBr)N(C)CCBr)n2C)C1=O	< 0.0204 µM (active)	< 0.0108 µM (active)	0.0356 µM (active)	0.0542 µM (active)	< 0.0322 µM (active)	4.04 µM (inactive)	< 0.0238 µM (active)	1.21 µM (inactive)	0.281 µM (active)	1.24 µM (inactive)	0.583 µM (active)	0.385 µM (active)	0.183 µM (active)	< 0.0178 µM (active)	1.59 µM (inactive)	1.07 µM (active)	0.55 µM (active)	0.247 µM (active)	0.0419 µM (active)	–
N/N=C1/CCCc2nonc21	> 100 µM (inactive)	> 100 µM (inactive)	> 100 µM (inactive)	> 100 µM (inactive)	> 100 µM (inactive)	> 100 µM (inactive)	> 100 µM (inactive)	> 100 µM (inactive)	–	> 100 µM (inactive)	> 100 µM (inactive)	> 100 µM (inactive)	> 100 µM (inactive)	> 100 µM (inactive)	> 100 µM (inactive)	> 100 µM (inactive)	> 100 µM (inactive)	> 100 µM (inactive)	> 100 µM (inactive)	–
CC(Oc1ccc(Cl)cc1Cl)C(=O)NN1C(=O)CC(=O)N(c2ccccc2)C1=S (centres undefined)	60.3 µM (inactive)	48.1 µM (inactive)	–	35.5 µM (inactive)	56.2 µM (inactive)	18.1 µM (inactive)	55 µM (inactive)	–	31.5 µM (inactive)	39.9 µM (inactive)	> 100 µM (inactive)	30.7 µM (inactive)	95.1 µM (inactive)	> 100 µM (inactive)	98.6 µM (inactive)	47.4 µM (inactive)	43.2 µM (inactive)	> 100 µM (inactive)	41.9 µM (inactive)	37.8 µM (inactive)
N#Cc1c(C#N)c(-c2ccco2)n(/N=C/c2ccco2)c1N	33.2 µM (inactive)	> 100 µM (inactive)	> 100 µM (inactive)	52.8 µM (inactive)	28.1 µM (inactive)	> 100 µM (inactive)	83.4 µM (inactive)	–	> 100 µM (inactive)	65.9 µM (inactive)	> 100 µM (inactive)	> 100 µM (inactive)	28.2 µM (inactive)	23.9 µM (inactive)	–	> 100 µM (inactive)	2.93 µM (inactive)	96.6 µM (inactive)	24.6 µM (inactive)	18.8 µM (inactive)
Nc1ncn(C/C=C/c2ccccc2)c2ncnc1-2	> 100 µM (inactive)	> 100 µM (inactive)	–	> 100 µM (inactive)	> 100 µM (inactive)	> 100 µM (inactive)	> 100 µM (inactive)	> 100 µM (inactive)	78.2 µM (inactive)	> 100 µM (inactive)	> 100 µM (inactive)	> 100 µM (inactive)	> 100 µM (inactive)	> 100 µM (inactive)	> 100 µM (inactive)	> 100 µM (inactive)	> 100 µM (inactive)	> 100 µM (inactive)	> 100 µM (inactive)	–
O=C(O[C@H]1CCN2C[C@H]3C[C@H](CN4C(=O)CCC[C@H]34)[C@@H]2C1)c1ccc(O)cc1	> 100 µM (inactive)	> 100 µM (inactive)	> 100 µM (inactive)	> 100 µM (inactive)	> 100 µM (inactive)	> 100 µM (inactive)	> 100 µM (inactive)	> 100 µM (inactive)	> 100 µM (inactive)	–	> 100 µM (inactive)	> 100 µM (inactive)	> 100 µM (inactive)	> 100 µM (inactive)	> 100 µM (inactive)	–	> 100 µM (inactive)	> 100 µM (inactive)	> 100 µM (inactive)	> 100 µM (inactive)
O=C(CN1CCOCC1)NC1=Nc2ncccc2C(=O)NN1	> 10 µM (inactive)	> 10 µM (inactive)	> 10 µM (inactive)	> 10 µM (inactive)	> 10 µM (inactive)	> 10 µM (inactive)	> 10 µM (inactive)	> 10 µM (inactive)	–	–	> 10 µM (inactive)	> 10 µM (inactive)	> 10 µM (inactive)	> 10 µM (inactive)	> 10 µM (inactive)	> 10 µM (inactive)	> 10 µM (inactive)	> 10 µM (inactive)	> 10 µM (inactive)	> 10 µM (inactive)
CC12CN(CC[N+](C)(C)C)CC1(C)C1CCC2O1 (centres undefined)	> 100 µM (inactive)	> 100 µM (inactive)	> 100 µM (inactive)	> 100 µM (inactive)	> 100 µM (inactive)	> 100 µM (inactive)	> 100 µM (inactive)	–	> 100 µM (inactive)	> 100 µM (inactive)	> 100 µM (inactive)	> 100 µM (inactive)	> 100 µM (inactive)	> 100 µM (inactive)	> 100 µM (inactive)	> 100 µM (inactive)	> 100 µM (inactive)	> 100 µM (inactive)	> 100 µM (inactive)	> 100 µM (inactive)
C/C(O[Si](C(C)C)(C(C)C)C(C)C)=C(\C)C(=O)N(C)c1ccccc1Cl	> 100 µM (inactive)	> 100 µM (inactive)	–	> 100 µM (inactive)	> 100 µM (inactive)	> 100 µM (inactive)	> 100 µM (inactive)	–	73.8 µM (inactive)	> 100 µM (inactive)	> 100 µM (inactive)	> 100 µM (inactive)	> 100 µM (inactive)	> 100 µM (inactive)	> 100 µM (inactive)	> 100 µM (inactive)	> 100 µM (inactive)	> 100 µM (inactive)	> 100 µM (inactive)	> 100 µM (inactive)
[N-]=[N+]=Nc1nc2ccccc2c(N=[N+]=[N-])c1Cl	56.2 µM (inactive)	> 100 µM (inactive)	> 100 µM (inactive)	> 100 µM (inactive)	79.1 µM (inactive)	> 100 µM (inactive)	> 100 µM (inactive)	> 100 µM (inactive)	–	> 100 µM (inactive)	> 100 µM (inactive)	> 100 µM (inactive)	> 100 µM (inactive)	96.8 µM (inactive)	> 100 µM (inactive)	> 100 µM (inactive)	> 100 µM (inactive)	> 100 µM (inactive)	> 100 µM (inactive)	–
CCN(CC)C1Oc2cc3c(cc2C(c2ccc(OC)cc2)C1C)OCO3 (centres undefined)	21.7 µM (inactive)	22.5 µM (inactive)	15.5 µM (inactive)	15.8 µM (inactive)	24.8 µM (inactive)	20 µM (inactive)	16.1 µM (inactive)	17.5 µM (inactive)	15 µM (inactive)	–	26.2 µM (inactive)	17 µM (inactive)	17.3 µM (inactive)	20.2 µM (inactive)	20.4 µM (inactive)	17.3 µM (inactive)	26.9 µM (inactive)	18.7 µM (inactive)	22.2 µM (inactive)	23 µM (inactive)
Fc1ccccc1C1SCC2=Nc3ccccc3CN21 (centres undefined)	95.3 µM (inactive)	> 100 µM (inactive)	> 100 µM (inactive)	48.5 µM (inactive)	67.1 µM (inactive)	> 100 µM (inactive)	> 100 µM (inactive)	> 100 µM (inactive)	–	> 100 µM (inactive)	92.9 µM (inactive)	> 100 µM (inactive)	54.1 µM (inactive)	94.8 µM (inactive)	> 100 µM (inactive)	89.7 µM (inactive)	> 100 µM (inactive)	> 100 µM (inactive)	> 100 µM (inactive)	–
CCOC(=O)N(C)CCC1CC=CC(=O)C1c1cccc(OC)c1OC (centres undefined)	17 µM (inactive)	34 µM (inactive)	10.6 µM (inactive)	14.4 µM (inactive)	24.4 µM (inactive)	14.1 µM (inactive)	38.7 µM (inactive)	13.1 µM (inactive)	13.6 µM (inactive)	19.8 µM (inactive)	17.3 µM (inactive)	14.2 µM (inactive)	19.9 µM (inactive)	9.91 µM (inactive)	–	9.53 µM (inactive)	21.4 µM (inactive)	22.5 µM (inactive)	16.7 µM (inactive)	–
CCOC(=O)c1cc2cc(C)cc(C(=O)c3ccc([N+](=O)[O-])cc3)c2[nH]1	86.7 µM (inactive)	> 100 µM (inactive)	> 10 µM (inactive)	> 100 µM (inactive)	33.4 µM (inactive)	> 100 µM (inactive)	> 100 µM (inactive)	> 100 µM (inactive)	> 100 µM (inactive)	–	> 100 µM (inactive)	> 100 µM (inactive)	> 100 µM (inactive)	> 100 µM (inactive)	> 100 µM (inactive)	> 100 µM (inactive)	> 100 µM (inactive)	> 100 µM (inactive)	26.6 µM (inactive)	> 100 µM (inactive)
O=C(Nc1cccc(F)c1)c1cc2ccc(O)cc2o/c1=N\c1cccc(F)c1	7.85 µM (inactive)	4.88 µM (inactive)	2.22 µM (inactive)	4.78 µM (inactive)	27.9 µM (inactive)	6.95 µM (inactive)	3.27 µM (inactive)	6.35 µM (inactive)	2.99 µM (inactive)	3.4 µM (inactive)	34 µM (inactive)	2.87 µM (inactive)	3.03 µM (inactive)	19.8 µM (inactive)	5.09 µM (inactive)	3.6 µM (inactive)	3.27 µM (inactive)	–	3.99 µM (inactive)	–
